Reference: ChEMBL document CHEMBL1944615, “Synthesis and biological evaluation of deoxy-hematoxylin derivatives as a novel class of anti-HIV-1 agents” (Bioorg Med Chem Lett, 2012)

Tests used:
[1] = system: Human immunodeficiency virus 1; experiment: Antiviral activity against HIV1 NL432 infected in human TZM-Bl cells assessed as inhibition of viral replication after 2 days by luciferase reporter gene analysis; assay type: functional, organism-based
[2] = system: Human immunodeficiency virus 1; experiment: Antiviral activity against HIV1 NF-462 expressing wild-type Vpr infected in human 293T cells containing 4 ng of viral p24 antigen after 8 days by ELISA; assay type: functional, organism-based
[3] = Inhibition of HIV1 VPR/human importin-alpha interaction in human HeLa cells assessed as inhibition of nuclear import of preintegral complex after 15 mins by confocal laser scanning microscopic analysis; assay type: cell-based
[4] = Cytotoxicity against human MOLT4 cells expressing CD4+ after 2 days by MTT assay; assay type: cell-based, MOLT-4
[5] = system: Human immunodeficiency virus 1; experiment: Antiviral activity against HIV1 NL432 infected in human ConA and IL2-stimulated PBMC assessed as inhibition of viral replication by reverse transcriptase assay; assay type: functional, organism-based
[6] = system: Human immunodeficiency virus 1; experiment: Antiviral activity against HIV1 NF-462 expressing wild-type Vpr infected in human 293T cells containing 4 ng of viral p24 antigen after 8 days by ELISA relative to hematoxylin; assay type: functional
[7] = system: Human immunodeficiency virus 1; experiment: Antiviral activity against HIV1 NF-462 expressing wild-type Vpr infected in human 293T cells containing 1 ng of viral p24 antigen after 8 days by ELISA relative to hematoxylin; assay type: functional
[8] = Human immunodeficiency virus 1, NF-462, HEK-293T, 192 h, read-out: IC50
[9] = Human immunodeficiency virus 1, NL432, TZM-bl, 48 h, read-out: IC50
[10] = Human immunodeficiency virus 1, NL432, read-out: IC50

IC50 [2, 8] [nM]	IC50 [3] [nM]	IC50 ([2]; 293t)	IC50 [1, 9] [nM]	IC50 [5, 10] [nM]	Structure (SMILES)	IC50 ([1]; tzm-bl)	CC50 at 48 h [4] [nM]	IC50 [5]	Ratio IC50 [6]	Ratio IC50 [7]
400	900				Oc1cc2c(cc1O)[C@@H]1c3cccc(O)c3OC[C@]1(O)C2	ND(toxic)	32000	ND(toxic)		
	1900				Oc1cc2c(cc1O)[C@@H]1c3ccccc3OC[C@]1(O)C2	ND(toxic)	1900			
	2700				O[C@]12COc3ccccc3[C@H]1c1ccccc1C2	Not Active	> 100000			
900	600		67600	25100	Oc1ccc2c(c1)C[C@@]1(O)COc3ccccc3[C@@H]21		82000			

Second part, the compound before the results:

Structure (SMILES)	IC50 [2, 8] [nM]	IC50 [3] [nM]	IC50 ([2]; 293t)	IC50 [1, 9] [nM]	IC50 [5, 10] [nM]	IC50 ([1]; tzm-bl)	CC50 at 48 h [4] [nM]	IC50 [5]	Ratio IC50 [6]	Ratio IC50 [7]
CC1(C)Oc2cc3c(cc2O1)[C@@H]1c2cccc(OCc4ccccc4)c2OC[C@]1(O)C3		800	Not Active			Not Active	> 80000			
CC1(C)Oc2cc3c(cc2O1)[C@@H]1c2cccc(O)c2OC[C@]1(O)C3	100	500		24600	30100		> 80000		10	2
Oc1cc2c(cc1O)[C@@H]1c3ccc(O)c(O)c3OC[C@]1(O)C2 [HEMATOXYLIN]	< 1000	1300		100000			40000	ND(toxic)		
